Test [1] has as its system Human pulmonary artery endothelial cells (EC). The test can be described thus: TNF-α-induced apoptosis / PARP-1 cleavage in human lung endothelial cells. In kind it is cell-based. How it is done: Human pulmonary artery endothelial cells (EC) were obtained from Lonza (Walkersville Md.) and were cultured in the manufacturer's recommended endothelial growth medium-2 (EGM-2). Cells were grown at 37° C. in a 5% CO2 incubator, and passages 6 to 9 were used for experiments. Media was changed one day before experimentation. For RNA interference, siRNAs were transfected into EC at a final concentration of 100 nM for 72 hrs. Protein quantification and Western blot analysis were performed according to standard procedures.
(B) ECs were pre-treated (6 hrs) with either vehicle (DMSO) or with a caspase-3 inhibitor (z-DEVD-fmk, 20 μM) prior to 24 hr challenge with TNF-α (30 ng/ml), FasL (100 ng/ml) or tBHP (5 mM). […] (C) ECs were transfected with myc-tagged NAMPT plasmid resulting in marked NAMPT overexpression. […] Error bars indicate SEM of three independent experiments.

Test [2] has as its target T1, NAMPT (Homo sapiens, UniProt P43490).
T1 construct: purchased MBL International (Woburn, Mass.)
As to the kind of experiment: CycLex NAMPT Colorimetric Assay, NAMPT enzymatic activity. In kind it is biochemical. Particulars: three doses 0.1, 1, 10 uM. How it is done:
CycLex NAMPT Colorimetric Assay Kit was purchased from MBL International (Woburn, Mass.) and utilized to screen the effect of putative NAMPT inhibitors on NAMPT enzymatic activity. Three doses (0.1, 1, 10 uM) of each NAMPT inhibitors was used following the manufacturer's instruction.

In test [3] the test system is MCT-induced PH in rats. The test can be described thus: MCT-PH model, FK-866 analogs as preventive therapy. Particulars: for hypertrophy-ratio of RV and LV plus septal-S weight (RVH-RV) / right ventricular systolic pressure (RVSP): preliminary studies in MCT-PH. In kind it is in vivo. How it is done:
FIG. 10A is a bar graph showing normalized NAMPT activity in the present of FK866 and FK analogues MS-1-82, Rari049, Alp-135 at 0.1, 1, and 10 μM concentrations. FIG. 10B is a bar graph showing RVSP in MCT-induced PH in rats and in MCT-induced PH in rats with Rari049 (2.5 mg/kg, i.p. BID, ×2 wks) (RVSP-right ventricular systolic pressure, RVH-RV hypertrophy-ratio of RV and LV plus septal-S weight).

The subject of test [4] is hPASMCs. The test can be described thus: TUNEL apoptosis assay in hPASMCs. Particulars: FK866 10 μM, 24 hrs. In kind it is cell-based, human. How it is done: hPASMCs were cultured on a coverslip in a 6-well cell culture plate. H2O2 (100 μM, Sigma, Cat. #ab66110) was used as an apoptosis stimulus for hPASMCs.
When cell confluence reached 95%, cells were starved for 3 hrs and stimulated by H2O2, FK866 (10 μM), H2O2+rhNAMPT (20 μg/ml) or H2O2+rhNAMPT (20 μg/ml) with FK866 (10 μM) for 24 hrs. Cell apoptosis was examined using an in situ BrdU-Red DNA fragmentation (TUNEL) kit. The cells on the coverslips were examined using a Nikon Eclipse E800 fluorescence microscope, and the images were processed by MetaMorph software (Molecular Devices, Inc.). Approximately ten images were taken from each condition, and over 500 cells were counted according to DAPI staining.

[5] abbreviates: MCT-PH, 2.5 mg/kg, i.p. BID, ×2 wks.

Here are results for five molecules from patent US10975167B2, “Method to reduce pulmonary arterial hypertension by administering inhibitors of nicotinamide phosphoribotransferase” (Arizona Board of Regents on Behalf of the University of …, priority 2017, dated 2021).

T1 sequence (P43490 whole entry): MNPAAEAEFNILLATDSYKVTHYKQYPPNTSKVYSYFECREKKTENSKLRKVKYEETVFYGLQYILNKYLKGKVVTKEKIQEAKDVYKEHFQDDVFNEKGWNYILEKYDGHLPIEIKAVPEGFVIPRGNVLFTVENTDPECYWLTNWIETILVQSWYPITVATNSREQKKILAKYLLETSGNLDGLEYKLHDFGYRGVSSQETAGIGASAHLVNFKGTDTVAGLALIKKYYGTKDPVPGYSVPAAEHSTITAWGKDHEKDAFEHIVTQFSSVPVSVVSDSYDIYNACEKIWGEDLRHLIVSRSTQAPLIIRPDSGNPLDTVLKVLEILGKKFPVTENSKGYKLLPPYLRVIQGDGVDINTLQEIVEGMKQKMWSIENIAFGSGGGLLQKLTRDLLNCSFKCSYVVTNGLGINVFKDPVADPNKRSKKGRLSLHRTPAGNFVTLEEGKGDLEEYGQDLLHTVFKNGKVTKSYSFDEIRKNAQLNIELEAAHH

Consider z-DEVD-fmk, for which the “PARP-1 cleavage induced by TNF-α” value in test [1] (pre-incubated 6 hrs, 20 μM, TNF-α 30 ng/ml 24 hrs, vs vehicle (DMSO)) is on record as “significantly reduced”.
For the molecule `O=C(/C=C/c1cccnc1)NCCCCCCn1c2ccccc2c2ccccc21` [Alp135], the “NAMPT enzyme inhibitory properties” value in test [2] is listed as “excellent dose-dependent enzyme inhibitory properties”. Also, in test [3], the “hypertrophy-ratio of RV and LV plus septal-S weight (RVH-RV)” value was “reducing”; the “right ventricular systolic pressure (RVSP)” value was “reducing”.
With `O=C(/C=C/c1cccnc1)NCCCCCCn1c(-c2ccccc2)cc2ccccc21` [Rari049], in test [2], the “NAMPT enzyme inhibitory properties” value was “excellent dose-dependent enzyme inhibitory properties”. In test [3] (setting [5]), the RVH entry is “reducing” and the RVSP result was “reducing”. Moreover, in test [3], the “hypertrophy-ratio of RV and LV plus septal-S weight (RVH-RV)” value is listed as “reducing”; the “right ventricular systolic pressure (RVSP)” value is recorded as “reducing”.
On to `O=C(/C=C/c1cccnc1)NCCCCC1CCN(C(=O)c2ccccc2)CC1` [FK866, (E)-N-[4-(1-Benzoylpiperidin-4-yl)butyl]-3-pyridin-3-ylprop-2-enamide, reference compound], for which the “TNFα-induced EC apoptosis” value in test [1] (human lung EC) is given as “failed to alter”. Further, the “hPASMC apoptosis (TUNEL positive cells)” value in test [4] is reported as “promotes”.
For `O=C(/C=C/c1cccnc1)NCCCCCCNC(=O)c1cccnc1` [MS-1-82], in test [2], the “NAMPT enzyme inhibitory properties” value is listed as “excellent dose-dependent enzyme inhibitory properties”.
